Measured values reported in US10952992B2, “Methods of treating intraocular pressure with activators of Tie-2” (Aerpio Pharmaceuticals, Inc., priority 2015, dated 2021).
Several values for one entry are separate records, joined by “and”; a condition that tells them apart may be missing. Identical values can stand only once. Counter-ions that a name gives are not always drawn.

Assay: Example 2 iris, retina, choroid and cornea tissue concentrations
Format: in vivo, male New Zealand White rabbits
Conditions: for Average / Conc. (ng/g) OD / Conc. (ng/g) OS / Conc. (ng/mL) OD / Conc. (ng/mL) OS: Retina; for Choroid Conc. OS / Choroid Conc. OD: choroid homogenate; for Choroid Conc. OS / Choroid tissue Conc. OS / Cornea Conc. OS / Cornea tissue Conc. OS / Iris Conc. OS / Iris tissue Conc. OS / Retina Conc. OS / Retina tissue Conc. OS: left eye; for Choroid Conc. OS / Choroid Conc. OD / Choroid tissue Conc. OS / Choroid tissue Conc. OD / Cornea Conc. OS / Cornea Conc. OD / Cornea tissue Conc. OS / Cornea tissue Conc. OD / Iris Conc. OS / Iris Conc. OD / Iris tissue Conc. OS / Iris tissue Conc. OD / Retina Conc. OS / Retina Conc. OD / Retina tissue Conc. OS / Retina tissue Conc. OD: individual animals; for Choroid Conc. OS / Choroid Conc. OD / Choroid tissue Conc. Avg. / Choroid tissue Conc. OS / Choroid tissue Conc. OD / Cornea Conc. OS / Cornea Conc. OD / Cornea tissue Conc. Avg. / Cornea tissue Conc. OS / Cornea tissue Conc. OD / Iris Conc. OS / Iris Conc. OD / Iris tissue Conc. Avg. / Iris tissue Conc. OS / Iris tissue Conc. OD / Retina Conc. OS / Retina Conc. OD / Retina tissue Conc. Avg. / Retina tissue Conc. OS / Retina tissue Conc. OD: intravitreal 2.5 mg/eye (~1.55 mg/kg), Group 4; for Choroid Conc. OD / Choroid tissue Conc. OD / Cornea Conc. OD / Cornea tissue Conc. OD / Iris Conc. OD / Iris tissue Conc. OD / Retina Conc. OD / Retina tissue Conc. OD: right eye; for Choroid tissue Conc. Avg. / Cornea tissue Conc. Avg. / Iris tissue Conc. Avg. / Retina tissue Conc. Avg.: average; for Cornea Conc. OS / Cornea Conc. OD: cornea homogenate; for Iris Conc. OS / Iris Conc. OD: iris homogenate; for Retina Conc. OS / Retina Conc. OD: retina homogenate
Procedure: To measure the concentration of Compound 1 in plasma and ocular tissues following topical ocular, subcutaneous, and intravitreal administration, New Zealand White rabbits were administered Compound 1, and plasma and ocular samples were collected at pre-determined time points. Compound 1 formulations were prepared fresh on each day of dosing.
Ocular tissue samples from both eyes of each animal were collected and weights were recorded. Plasma and ocular tissue sample concentrations of Compound 1 were determined by LC-MS/MS.
Animals were anesthetized for ocular (topical) and intravitreal dosing following the 12IA7 IACUC protocol. Each rabbit received a bolus dose of test formulation either via topical ocular administration 3 times daily on Days 1 and 2 (at 0, 6, and 12 hours), and once on Day 3 (at 0 hours) into both eyes; via intravitreal administration into both eyes once on Day 1 (at 0 hours); or via subcutaneous administration 2 times daily on Days 1 and 2 (at 0 and 8 hours) and once daily on Day 3 (at 0 hours). Doses were given within an approximately 1 hour window each day where applicable.
On Day 1, for intravitreal administration, or on Day 3, for topical ocular and subcutaneous administration, at the appropriate ocular tissue collection time points, animals were euthanized and both eyes were enucleated immediately. Following enucleation, each eye was rinsed with phosphate-buffered saline. Ocular tissue samples from both eyes of each animal were collected at predetermined time points and weights were recorded. All the samples were frozen immediately on dry ice, and stored at −60° C. to −80° C. pending bioanalysis.
An LC-MS/MS method was developed for the determination of Compound 1 in rabbit aqueous tissues (plasma, aqueous and vitreous humor) and solid ocular tissue samples. A pre-study standard curve was analyzed to determine the specificity, range, and lower limit of quantitation of the method. Plasma and tissue homogenate study samples were extracted and analyzed. All the samples were treated identically to the standards.
One eight-point standard curve was used in each analytical batch. To be accepted, each batch must have had at least five of eight standards with accuracy within ±20% of nominal, except at the lower limit of quantification (LLOQ), where ±25% was acceptable.

[1] = 1 hr, subcutaneous 5 mg/kg/dose (Group 2), sodium salt
[2] = 1 hr, topical ocular 1.2 mg/eye (Group 1), sodium salt
[3] = 2 hr, subcutaneous 5 mg/kg/dose (Group 2), sodium salt
[4] = 4 hr, subcutaneous 5 mg/kg/dose (Group 2), sodium salt
[5] = 4 hr, topical ocular 1.2 mg/eye (Group 1), sodium salt

- Average [1]: 32.6 ng/g
- Conc. (ng/g) OD [1]: 22.4 ng/g and 18.3 ng/g
- Conc. (ng/g) OS [1]: 43.2 ng/g and 46.4 ng/g
- Conc. (ng/mL) OD [1]: 2.04 ng/mL and 1.66 ng/mL
- Conc. (ng/mL) OS [1]: 3.93 ng/mL and 4.22 ng/mL
- Average [2]: 59.2 ng/g
- Conc. (ng/g) OD [2]: 76.9 ng/g and 85.9 ng/g
- Conc. (ng/mL) OD [2]: 6.99 ng/mL and 7.81 ng/mL
- Average [3]: 16.4 ng/g
- Conc. (ng/g) OD [3]: 15.0 ng/g
- Conc. (ng/g) OS [3]: 17.8 ng/g
- Average (2 hr, topical ocular 1.2 mg/eye (Group 1), sodium salt): 48.3 ng/g
- Average [4]: 19.7 ng/g
- Conc. (ng/g) OD [4]: 19.7 ng/g
- Conc. (ng/mL) OS [4]: BLOQ
- Average [5]: 405 ng/g
- Conc. (ng/g) OS [5]: 64.8 ng/g
- Choroid Conc. OS (6.0 hr): 105000 ng/mL and 44000 ng/mL
- Choroid Conc. OD (6.0 hr): 164000 ng/mL and 31500 ng/mL
- Choroid Conc. OS (24 hr): 9890 ng/mL and 10400 ng/mL
- Choroid Conc. OD (24 hr): 11800 ng/mL and 18400 ng/mL
- Choroid Conc. OS (48 hr): 3740 ng/mL and 2790 ng/mL
- Choroid Conc. OD (48 hr): 3480 ng/mL and 4040 ng/mL
- Choroid Conc. OS (72 hr): 282 ng/mL and 290 ng/mL
- Choroid Conc. OD (72 hr): 107 ng/mL and 311 ng/mL
- Choroid tissue Conc. Avg. (6.0 hr): 947375 ng/g
- Choroid tissue Conc. OS (6.0 hr): 1155000 ng/g and 484000 ng/g
- Choroid tissue Conc. OD (6.0 hr): 1804000 ng/g and 346500 ng/g
- Choroid tissue Conc. Avg. (24 hr): 138848 ng/g
- Choroid tissue Conc. OS (24 hr): 108790 ng/g and 114400 ng/g
- Choroid tissue Conc. OD (24 hr): 129800 ng/g and 202400 ng/g
- Choroid tissue Conc. Avg. (48 hr): 38638 ng/g
- Choroid tissue Conc. OS (48 hr): 41140 ng/g and 30690 ng/g
- Choroid tissue Conc. OD (48 hr): 38280 ng/g and 44440 ng/g
- Choroid tissue Conc. Avg. (72 hr): 2723 ng/g
- Choroid tissue Conc. OS (72 hr): 3102 ng/g and 3190 ng/g
- Choroid tissue Conc. OD (72 hr): 1177 ng/g and 3421 ng/g
- Cornea Conc. OS (6.0 hr): 6940 ng/mL and 6030 ng/mL
- Cornea Conc. OD (6.0 hr): 6300 ng/mL and 6710 ng/mL
- Cornea Conc. OS (24 hr): 1560 ng/mL and 1930 ng/mL
- Cornea Conc. OD (24 hr): 2180 ng/mL and 2940 ng/mL
- Cornea Conc. OS (48 hr): 662 ng/mL and 487 ng/mL
- Cornea Conc. OD (48 hr): 1050 ng/mL and 538 ng/mL
- Cornea Conc. OS (72 hr): 20.1 ng/mL and 58.1 ng/mL
- Cornea Conc. OD (72 hr): 18.0 ng/mL and 56.9 ng/mL
- Cornea tissue Conc. Avg. (6.0 hr): 71445 ng/g
- Cornea tissue Conc. OS (6.0 hr): 76340 ng/g and 66330 ng/g
- Cornea tissue Conc. OD (6.0 hr): 69300 ng/g and 73810 ng/g
- Cornea tissue Conc. Avg. (24 hr): 23678 ng/g
- Cornea tissue Conc. OS (24 hr): 17160 ng/g and 21230 ng/g
- Cornea tissue Conc. OD (24 hr): 23980 ng/g and 32340 ng/g
- Cornea tissue Conc. Avg. (48 hr): 7527 ng/g
- Cornea tissue Conc. OS (48 hr): 7282 ng/g and 5357 ng/g
- Cornea tissue Conc. OD (48 hr): 11550 ng/g and 5918 ng/g
- Cornea tissue Conc. Avg. (72 hr): 421 ng/g
- Cornea tissue Conc. OS (72 hr): 221 ng/g and 639 ng/g
- Cornea tissue Conc. OD (72 hr): 198 ng/g and 626 ng/g
- Iris Conc. OS (6.0 hr): 34000 ng/mL and 30600 ng/mL
- Iris Conc. OD (6.0 hr): 35500 ng/mL and 27800 ng/mL
- Iris Conc. OS (24 hr): 7610 ng/mL and 25900 ng/mL
- Iris Conc. OD (24 hr): 6890 ng/mL and 11000 ng/mL
- Iris Conc. OS (48 hr): 1960 ng/mL and 2780 ng/mL
- Iris Conc. OD (48 hr): 2380 ng/mL and 1820 ng/mL
- Iris Conc. OS (72 hr): 225 ng/mL and 59.5 ng/mL
- Iris Conc. OD (72 hr): 169 ng/mL and 110 ng/mL
- Iris tissue Conc. Avg. (6.0 hr): 351725 ng/g
- Iris tissue Conc. OS (6.0 hr): 374000 ng/g and 336600 ng/g
- Iris tissue Conc. OD (6.0 hr): 390500 ng/g and 305800 ng/g
- Iris tissue Conc. Avg. (24 hr): 141350 ng/g
- Iris tissue Conc. OS (24 hr): 83710 ng/g and 284900 ng/g
- Iris tissue Conc. OD (24 hr): 75790 ng/g and 121000 ng/g
- Iris tissue Conc. Avg. (48 hr): 24585 ng/g
- Iris tissue Conc. OS (48 hr): 21560 ng/g and 30580 ng/g
- Iris tissue Conc. OD (48 hr): 26180 ng/g and 20020 ng/g
- Iris tissue Conc. Avg. (72 hr): 1550 ng/g
- Iris tissue Conc. OS (72 hr): 2475 ng/g and 655 ng/g
- Iris tissue Conc. OD (72 hr): 1859 ng/g and 1210 ng/g
- Retina Conc. OS (6.0 hr): 41100 ng/mL and 82300 ng/mL
- Retina Conc. OD (6.0 hr): 39200 ng/mL and 119000 ng/mL
- Retina Conc. OS (24 hr): 28000 ng/mL and 3700 ng/mL
- Retina Conc. OD (24 hr): 29200 ng/mL and 35200 ng/mL
- Retina Conc. OS (48 hr): 6030 ng/mL and 6530 ng/mL
- Retina Conc. OD (48 hr): 6490 ng/mL and 7360 ng/mL
- Retina Conc. OS (72 hr): 370 ng/mL and 484 ng/mL
- Retina Conc. OD (72 hr): 750 ng/mL and 598 ng/mL
- Retina tissue Conc. Avg. (6.0 hr): 774400 ng/g
- Retina tissue Conc. OS (6.0 hr): 452100 ng/g and 905300 ng/g
- Retina tissue Conc. OD (6.0 hr): 431200 ng/g and 1309000 ng/g
- Retina tissue Conc. Avg. (24 hr): 355850 ng/g
- Retina tissue Conc. OS (24 hr): 308000 ng/g and 407000 ng/g
- Retina tissue Conc. OD (24 hr): 321200 ng/g and 387200 ng/g
- Retina tissue Conc. Avg. (48 hr): 72628 ng/g
- Retina tissue Conc. OS (48 hr): 66330 ng/g and 71830 ng/g
- Retina tissue Conc. OD (48 hr): 71390 ng/g and 80960 ng/g
- Retina tissue Conc. Avg. (72 hr): 6056 ng/g
- Retina tissue Conc. OS (72 hr): 4070 ng/g and 5324 ng/g
- Retina tissue Conc. OD (72 hr): 8250 ng/g and 6578 ng/g
- distribution among iris, retina, choroid, cornea (FIG. 13) (subcutaneous 5 mg/kg/dose, sodium salt): generally higher in the iris and choroid
- ocular tissue concentrations, sodium salt solution compared to free acid suspension (subcutaneous and intravitreal administration): generally higher
- distribution among iris, retina, choroid, cornea (FIG. 12) (topical ocular administration at 0.7 mg/kg/dose): generally higher in the cornea
SMILES: COC(=O)N[C@@H](Cc1ccccc1)C(=O)N[C@@H](Cc1ccc(NS(=O)(=O)O)cc1)c1csc(-c2cccs2)n1 [Compound 1 sodium salt]
- distribution among iris, retina, choroid, cornea (FIG. 15) (intravitreal 1.55 mg/kg, sodium salt): generally higher in the retina and choroid
